Holding throughout (type): in vivo
Test [1] deals with Twospotted spider mites (Tetranychus urticae Koch). Put plainly: Mite/insect screen, SM. Particulars: Tetranychus urticae, percent mortality, SAW, read-out: SM RESULTS %; for mortality at 200 ppm: SM & MA RATE 200 PPM; for mortality at 400 ppm: SM & MA RATE 400 PPM. The protocol:
(§1) The compounds of Examples 1-295 were tested for miticidal and insecticidal activity in the following mite/insect screen.
(§2) Each test compound was formulated by dissolving the compound in acetone/alcohol (50:50) mixture containing 23 g of "TOXIMUL R" (sulfonate/nonionic emulsifier blend) and 13 g of "TOXIMUL S" (sulfonate/nonionic emulsifier blend) per liter. These mixtures were then diluted with water to give the indicated concentrations.
(§3) Other plants in the same treatment pot were left uninfested. The leaves were then sprayed with 5 ml of test solution using a DeVilbiss atomizing sprayer at 10 psi. Both surfaces of the leaves were covered until runoff, and then allowed to dry for one hour. Two uninfested leaves were then excised and placed into a Petri dish containing southern armyworm (Spodopetra eridania Cramer).
(§4) After standard exposure periods, percent mortality was evaluated. […]

Test [2] has as its system Pyricularia oryzae (rice blast). Put plainly: whole plant or invertebrate. Particulars: disease control rating, foliar spray on rice, 400 ppm (+++ at 100 ppm).
A further test has as its system corn rootworm. Put plainly: Mite/insect screen, CRW. The conditions noted are these: percent mortality, read-out: CRW RESULTS %; for mortality at 12 ppm: CRW RATE 12.00 PPM; for mortality at 24 ppm: CRW RATE 24.00 PPM. The protocol: as §1, §2, §4
The subject of test [3] is southern armyworm (Spodopetra eridania Cramer). Put plainly: Mite/insect screen, SAW. The conditions noted are these: Spodoptera eridania, percent mortality, SAW, read-out: SAW RESULTS %; for mortality at 200 ppm: SM & MA RATE 200 PPM; for mortality at 400 ppm: SM & MA RATE 400 PPM. The protocol: as §1, §2, §3, §4
Test [4] deals with Puccinia recondita tritici (leaf rust). Put plainly: Test 1 greenhouse foliar spray screen, leaf rust on wheat. Particulars: disease control rating, foliar spray on wheat, 400 ppm (+++ at 100 ppm).
Test [5] has as its system Erysiphe graminis tritici (powdery mildew). Put plainly: Test 1 greenhouse foliar spray screen, powdery mildew on wheat. The conditions noted are these: disease control rating, foliar spray on wheat, 400 ppm (+++ at 100 ppm).
Test [6] deals with melon aphids (Aphis gossypii Glover). Put plainly: Mite/insect screen, MA. The conditions noted are these: Aphis gossypii, percent mortality, SAW, read-out: MA RESULTS %; for mortality at 200 ppm: SM & MA RATE 200 PPM; for mortality at 400 ppm: SM & MA RATE 400 PPM. The protocol: as §1, §2, §3, §4
The subject of test [7] is Pseudoperonospora cubensis (downy mildew). Put plainly: Test 1 greenhouse foliar spray screen, downy mildew on squash. The conditions noted are these: disease control rating, foliar spray on squash, 400 ppm (+++ at 100 ppm).
Test [8] deals with Botrytis cinerea (gray mold). Put plainly: Test 1 greenhouse foliar spray screen, gray mold on grape berries. Particulars: disease control rating, spray on grape berries, 400 ppm (+++ at 100 ppm).

This note sets out measurements from EP0326331B1, “Substituted quinolines and cinnolines” (Dow AgroSciences LLC, priority 1988, dated 1989).

As for `Clc1ccccc1CCNc1ccnc2c(Cl)cccc12` [Example 115, N-[2-(2-chlorophenyl)ethyl]-8-chloro-4-quinolinamine], the mortality at 200 ppm in test [1], in test [3] and in test [6] was 0% throughout. In addition, the mortality at 400 ppm in [1], in test [3] and in test [6] was 0% throughout. Also, in test [2], the “RICE BLAST” value was “+ (20-89% control at 400 ppm)”. Further, the mortality at 12 ppm in the test on corn rootworm is 0%. The mortality at 24 ppm in the test on corn rootworm was determined as 0%. Further, the “LEAF RUST” value in test [4] is on record as “- (0-19% control at 400 ppm)”. Moreover, in [5], the “POWD MDEW” value is on record as “- (0-19% control at 400 ppm)”. Also, the “DOWN MDEW” value in [7] was “+ (20-89% control at 400 ppm)”. The “GRAY MOLD” value in test [8] is recorded as “- (0-19% control at 400 ppm)”.

`CC(=O)N(CCc1ccc(Cl)cc1)c1ccnc2ccc(F)cc12` [Example 121, N-[2-(4-chlorophenyl)ethyl]-N-(6-fluoro-4-quinolinyl)acetamide]: the mortality at 200 ppm in test [1], in test [3] and in test [6] was 0% in each case. For the same compound, the mortality at 400 ppm in test [1], in test [3] and in test [6] was 0% throughout. In addition, the “RICE BLAST” value in test [2] was “- (0-19% control at 400 ppm)”. In addition, in the test on corn rootworm, the mortality at 12 ppm worked out at 0%. Also, the mortality at 24 ppm in the test on corn rootworm is 0%. In [4], the “LEAF RUST” value is “++ (90-100% control at 400 ppm)”. Further, in test [5], the “POWD MDEW” value is “+ (20-89% control at 400 ppm)”. For the same compound, in [7], the “DOWN MDEW” value is given as “+ (20-89% control at 400 ppm)”. Besides, in test [8], the “GRAY MOLD” value was “- (0-19% control at 400 ppm)”.

Regarding `COc1ccc(CCN(C(C)=O)c2ccnc3cc(Cl)ccc23)cc1` [Example 125, N-(7-chloro-4-quinolinyl)-N-[2-(4-methoxyphenyl)ethyl]acetamide], in [1], the mortality at 200 ppm is 0% and the mortality at 400 ppm was 0%. The “RICE BLAST” value in test [2] was “- (0-19% control at 400 ppm)”. For the same compound, in the test with corn rootworm, the mortality at 12 ppm came out at 0% and the mortality at 24 ppm came out at 0%. Also, in test [3], the mortality at 200 ppm was 0% and the mortality at 400 ppm was found to be 0%. Also, the “LEAF RUST” value in test [4] was “- (0-19% control at 400 ppm)”. Besides, the “POWD MDEW” value in test [5] was “+ (20-89% control at 400 ppm)”. In addition, in [6], the mortality at 200 ppm stood at 0% and the mortality at 400 ppm was 0%. In addition, in [7], the “DOWN MDEW” value was “- (0-19% control at 400 ppm)”. Besides, the “GRAY MOLD” value in [8] is “- (0-19% control at 400 ppm)”.

As for `CC(=O)N(CCc1ccc(Cl)cc1Cl)c1ccnc2cc(C(F)(F)F)ccc12` [Example 127, N-[2-(2,4-dichlorophenyl)ethyl]-N-[7-(trifluoromethyl)-4-quinolinyl]acetamide], in test [1], the mortality at 200 ppm stood at 0% and the mortality at 400 ppm worked out at 0%. In test [2], the “RICE BLAST” value is reported as “+ (20-89% control at 400 ppm)”. In the test with corn rootworm, the mortality at 12 ppm was 0% and the mortality at 24 ppm was found to be 0%. In addition, in test [3], the mortality at 200 ppm was found to be 0% and the mortality at 400 ppm amounted to 0%. In addition, the “LEAF RUST” value in test [4] is recorded as “+ (20-89% control at 400 ppm)”. For the same compound, in test [5], the “POWD MDEW” value is on record as “+ (20-89% control at 400 ppm)”. In [6], the mortality at 200 ppm turned out to be 0% and the mortality at 400 ppm came out at 0%. Also, in test [7], the “DOWN MDEW” value is reported as “+ (20-89% control at 400 ppm)”. The “GRAY MOLD” value in [8] is given as “- (0-19% control at 400 ppm)”.

With `CC(=O)N(CCc1ccc(C(C)(C)C)cc1)c1ccnc2c(F)cccc12` [Example 128, N-[4-(t-butyl)phenyl]ethyl-N-(8-fluoro-4-quinolinyl)acetamide], in [1], the mortality at 200 ppm was found to be 0% and the mortality at 400 ppm turned out to be 0%. The “RICE BLAST” value in [2] is “+ (20-89% control at 400 ppm)”. Also, in the test on corn rootworm, the mortality at 12 ppm was found to be 0% and the mortality at 24 ppm amounted to 0%. Moreover, in test [3], the mortality at 200 ppm was 0% and the mortality at 400 ppm amounted to 0%. Also, in test [4], the “LEAF RUST” value is reported as “+ (20-89% control at 400 ppm)”. The “POWD MDEW” value in test [5] is reported as “- (0-19% control at 400 ppm)”. In [6], the mortality at 200 ppm is 0% and the mortality at 400 ppm was found to be 0%. In addition, the “DOWN MDEW” value in test [7] was “- (0-19% control at 400 ppm)”. Moreover, the “GRAY MOLD” value in test [8] is listed as “- (0-19% control at 400 ppm)”.

Turning to `CC(=O)N(CCc1ccc(-c2ccccc2)cc1)c1ccnc2c(F)cccc12` [Example 130, N-[2-(1,1'-biphenyl)-4-ylethyl]-N-(8-fluoro-4-quinolinyl)acetamide], in [1], the mortality at 200 ppm amounted to 0% and the mortality at 400 ppm is 0%. For the same compound, the “RICE BLAST” value in [2] is listed as “- (0-19% control at 400 ppm)”. In the test on corn rootworm, the mortality at 12 ppm is 0% and the mortality at 24 ppm came to 0%. Further, in test [3], the mortality at 200 ppm turned out to be 0% and the mortality at 400 ppm is 0%. Moreover, the “LEAF RUST” value in [4] was “- (0-19% control at 400 ppm)”. Besides, in test [5], the “POWD MDEW” value is reported as “- (0-19% control at 400 ppm)”. Also, in [6], the mortality at 200 ppm was 0% and the mortality at 400 ppm came out at 0%. Moreover, in test [7], the “DOWN MDEW” value was “- (0-19% control at 400 ppm)”. Moreover, in [8], the “GRAY MOLD” value is recorded as “- (0-19% control at 400 ppm)”.

In the case of `CC(=O)N(CCc1c(C)c(C)c(C)c(C)c1C)c1ccnc2c(F)cccc12` [Example 131, N-[2-(pentamethylphenyl)ethyl]-N-(8-fluoro-4-quinolinyl)acetamide], in test [1], the mortality at 200 ppm came out at 0% and the mortality at 400 ppm turned out to be 0%. In addition, in test [2], the “RICE BLAST” value is listed as “- (0-19% control at 400 ppm)”. Further, in the test with corn rootworm, the mortality at 12 ppm turned out to be 0% and the mortality at 24 ppm was 0%. Moreover, in test [3], the mortality at 200 ppm came out at 0% and the mortality at 400 ppm is 0%. For the same compound, the “LEAF RUST” value in test [4] was “- (0-19% control at 400 ppm)”. Besides, in test [5], the “POWD MDEW” value is “- (0-19% control at 400 ppm)”. In test [6], the mortality at 200 ppm was 0% and the mortality at 400 ppm was 0%. In addition, the “DOWN MDEW” value in test [7] is on record as “+ (20-89% control at 400 ppm)”. Besides, the “GRAY MOLD” value in test [8] is reported as “- (0-19% control at 400 ppm)”.

Regarding `CC(=O)N(CCc1ccccc1Cl)c1ccnc2c(Cl)cccc12` [Example 132, N-[2-(2-chlorophenyl)ethyl]-N-(8-chloro-4-quinolinyl)acetamide], in [1], the mortality at 200 ppm was found to be 0% and the mortality at 400 ppm is 0%. Moreover, the “RICE BLAST” value in test [2] is “- (0-19% control at 400 ppm)”. Further, in the test with corn rootworm, the mortality at 12 ppm is 0% and the mortality at 24 ppm is 0%. In test [3], the mortality at 200 ppm is 0% and the mortality at 400 ppm stood at 0%. The “LEAF RUST” value in test [4] was “- (0-19% control at 400 ppm)”. Further, in [5], the “POWD MDEW” value was “- (0-19% control at 400 ppm)”. In test [6], the mortality at 200 ppm came out at 0% and the mortality at 400 ppm was 0%. In addition, in [7], the “DOWN MDEW” value is on record as “- (0-19% control at 400 ppm)”. Moreover, the “GRAY MOLD” value in test [8] is given as “- (0-19% control at 400 ppm)”.

For the compound `COc1ccc(CCNc2ccnc3c(C)c(C)ccc23)cc1` [Example 133, N-[2-(4-methoxyphenyl)ethyl]-7,8-dimethyl-4-quinolinamine], in test [1], the mortality at 200 ppm was determined as 0% and the mortality at 400 ppm was found to be 0%. The “RICE BLAST” value in test [2] is recorded as “+ (20-89% control at 400 ppm)”. Further, in the test with corn rootworm, the mortality at 12 ppm is 0% and the mortality at 24 ppm was 0%. Also, in test [3], the mortality at 200 ppm came out at 0% and the mortality at 400 ppm was 0%. Further, the “LEAF RUST” value in test [4] is on record as “+ (20-89% control at 400 ppm)”. Also, in test [5], the “POWD MDEW” value is reported as “- (0-19% control at 400 ppm)”. In test [6], the mortality at 200 ppm turned out to be 0% and the mortality at 400 ppm was determined as 0%. In addition, the “DOWN MDEW” value in test [7] is listed as “+ (20-89% control at 400 ppm)”. In addition, the “GRAY MOLD” value in test [8] was “- (0-19% control at 400 ppm)”.

As to `Clc1ccc2c(NCCCc3ccc(-c4ccccc4)cc3)ccnc2c1` [Example 134, 7-chloro-N-[3-(1,1'-biphenyl)-4-ylpropyl]-4-quinolinamine], the mortality at 400 ppm in test [1], in [3] and in test [6] was 0% in each case. Further, in [2], the “RICE BLAST” value was “++ (90-100% control at 400 ppm)”. Besides, the mortality at 24 ppm with corn rootworm was found to be 0%. Further, the “LEAF RUST” value in [4] was “+ (20-89% control at 400 ppm)”. In [5], the “POWD MDEW” value is listed as “+ (20-89% control at 400 ppm)”. For the same compound, the “DOWN MDEW” value in test [7] is on record as “+++ (90-100% control at 100 ppm)”. The “GRAY MOLD” value in test [8] was “- (0-19% control at 400 ppm)”.
